Test [1] has as its target CDK3/Cyclin E (Homo sapiens) (UniProt P24864+Q00526). As to the kind of experiment: Inhibition of recombinant full length human CDK3/CyclinE assessed as residual activity at 1 uM using Histone H1 as substrate incubated for 40 mins in presence of [gamma-33ATP] by scintillation counting based radiometry assay relative to control. The class given is protein-complex assay.

Test [2] deals with Mitogen-activated protein kinase kinase kinase kinase 4 (Homo sapiens) (UniProt O95819). The test can be described thus: Inhibition of recombinant human MAP4K4 (1 to 328 residues) assessed as residual activity at 1 uM using RLGRDKYKTLRQIRQ as substrate incubated for 40 mins in presence of [gamma-33ATP by scintillation counting based radiometry assay relative to control.
The target of test [3] is Tyrosine-protein kinase Lyn (Homo sapiens) (UniProt P07948). The test can be described thus: Inhibition of recombinant human Lyn assessed as residual activity at 1 uM using poly(Glu, Tyr) 4:1 as substrate after 40 mins in presence of [gamma-33ATP] by scintillation counting based radiometry assay relative to control.
Test [4] deals with Serine/threonine-protein kinase MAK (Homo sapiens) (UniProt P20794). As to the kind of experiment: Inhibition of recombinant human MAK assessed as residual activity at 1 uM using RRRFRPASPLRGPPK as substrate after 120 mins in presence of [gamma-33ATP] by scintillation counting based radiometry assay relative to control.
Test [5] concerns the target Ephrin type-A receptor 2 (Homo sapiens) (UniProt P29317). The test can be described thus: Inhibition of recombinant human EphA2 (596 to 900 residues) assessed as residual activity at 1 uM using poly(Glu, Tyr) 4:1 as substrate at 40 mins in presence of [gamma-33ATP] by scintillation counting based radiometry assay relative to control.
For test [6], the target named is Serine/threonine-protein kinase NLK (Homo sapiens) (UniProt Q9UBE8). The test can be described thus: Inhibition of recombinant human NLK (121 to end residues) assessed as residual activity at 1 uM using myelin basic protein as substrate measured after 40 mins in presence of [gamma33P]ATP by scintillation counting method relative to control.
Test [7] addresses TGF-beta receptor type-2 (Homo sapiens) (UniProt P37173). The test can be described thus: Inhibition of human TGFBR2 (188 to end residues) assessed as residual activity at 1 uM using myelin basic protein as substrate measured after 120 mins in presence of [gamma33P]ATP by scintillation counting method relative to control.
Test [8] has as its target Cyclin-dependent kinase-like 1 (Homo sapiens) (UniProt Q00532). As to the kind of experiment: Inhibition of recombinant human CDKL1 (1 to 303 residues) assessed as residual activity at 1 uM using RRRFRPASPLRGP as substrate measured after 120 mins in presence of [gamma33P]ATP by scintillation counting method.
Test [9] addresses Ribosomal protein S6 kinase alpha-6 (Homo sapiens) (UniProt Q9UK32). As to the kind of experiment: Inhibition of recombinant full length human Rsk4 assessed as residual activity at 1 uM using LRRASLG as substrate measured after 40 mins in presence of [gamma33P]ATP by scintillation counting method relative to control.
Test [10] concerns the target Transcription initiation factor TFIID subunit 1-like (Homo sapiens) (UniProt Q8IZX4). As to the kind of experiment: Inhibition of human TAF1L (1428 to end residues) assessed as residual activity at 1 uM using RRRFRPASPLRGPPK as substrate measured after 120 mins in presence of [gamma33P]ATP by scintillation counting method relative to control.
The target in test [11] is Serine/threonine-protein kinase B-raf (Homo sapiens) (UniProt P15056). As to the kind of experiment: Inhibition of recombinant full length human B-Raf (416 to end residues) assessed as residual activity at 1 uM using myelin basic protein substrate incubated for 40 mins in presence of [gamma-33ATP] by scintillation counting based radiometry assay relative to control.
Test [12] concerns the target Serine/threonine-protein kinase Nek3 (Homo sapiens) (UniProt P51956). The test can be described thus: Inhibition of recombinant full-length human NEK3 assessed as residual activity at 1 uM using myelin basic protein as substrate measured after 40 mins in presence of [gamma33P]ATP by scintillation counting method relative to control.
The target in test [13] is CDK4/Cyclin D3 (Homo sapiens) (UniProt P11802+P30281). As to the kind of experiment: Inhibition of recombinant full length human CDK4/CyclinD3 assessed as residual activity at 1 uM using Rb fragment as substrate incubated for 40 mins in presence of [gamma-33ATP] by scintillation counting based radiometry assay relative to control. The class given is protein-complex assay.

Test [14] has as its target Serine/threonine-protein kinase tousled-like 2 (Homo sapiens) (UniProt Q86UE8). The test can be described thus: Inhibition of human TLK2 (387 to end residues) assessed as residual activity at 1 uM using casein as substrate measured after 40 mins in presence of [gamma33P]ATP by scintillation counting method relative to control.
The target of test [15] is Serine/threonine-protein kinase 26 (Homo sapiens) (UniProt Q9P289). As to the kind of experiment: Inhibition of recombinant human MST4 (4 to 304 residues) assessed as residual activity at 1 uM using RLGRDKYKTLRQIRQ as substrate measured after 40 mins in presence of [gamma33P]ATP by scintillation counting method relative to control.
The target in test [16] is Serine/threonine-protein kinase PLK1 (Homo sapiens) (UniProt P53350). The test can be described thus: Inhibition of recombinant full-length human Plk1 assessed as residual activity at 1 uM using casein as substrate measured after 40 mins in presence of [gamma33P]ATP by scintillation counting method relative to control.
Test [17] concerns the target Tyrosine-protein kinase Fgr (Homo sapiens) (UniProt P09769). As to the kind of experiment: Inhibition of recombinant human FGR (2 to end residues) assessed as residual activity at 1 uM using poly(Glu, Tyr) 4:1 as substrate at 40 mins in presence of [gamma-33ATP] by scintillation counting based radiometry assay relative to control.
Test [18] concerns the target Ephrin type-A receptor 4 (Homo sapiens) (UniProt P54764). As to the kind of experiment: Inhibition of recombinant human EphA4 (601 to 892 residues) assessed as residual activity at 1 uM using poly(Glu, Tyr) 4:1 as substrate at 40 mins in presence of [gamma-33ATP] by scintillation counting based radiometry assay relative to control.
Test [19] deals with Hepatocyte growth factor receptor (Homo sapiens), P08581 [Y1230C]. The test can be described thus: Inhibition of recombinant human MET A1209G/V1290L/Y1248C mutant (974 to end residues) assessed as residual activity at 1 uM using KKKGQEEEYVFIE as substrate incubated for 40 mins in presence of [gamma-33ATP by scintillation counting based radiometry assay relative to control.
Test [20] has as its target Casein kinase I isoform gamma-1 (Homo sapiens) (UniProt Q9HCP0). As to the kind of experiment: Inhibition of recombinant human CK1gamma1 (25 to 355 residues) assessed as residual activity at 1 uM using KRRRALS(p)VASLPGL as substrate measured after 40 mins in presence of [gamma33P]ATP by scintillation counting method.
Test [21] deals with Serine/threonine-protein kinase Chk1 (Homo sapiens) (UniProt O14757). The test can be described thus: Inhibition of recombinant full length human CHK1 assessed as residual activity at 1 uM using KKKVSRSGLYRSP as substrate incubated for 40 mins in presence of [gamma-33ATP] by scintillation counting based radiometry assay relative to control.

Serine/threonine-protein kinase NLK (Homo sapiens), sequence (Q9UBE8 whole entry): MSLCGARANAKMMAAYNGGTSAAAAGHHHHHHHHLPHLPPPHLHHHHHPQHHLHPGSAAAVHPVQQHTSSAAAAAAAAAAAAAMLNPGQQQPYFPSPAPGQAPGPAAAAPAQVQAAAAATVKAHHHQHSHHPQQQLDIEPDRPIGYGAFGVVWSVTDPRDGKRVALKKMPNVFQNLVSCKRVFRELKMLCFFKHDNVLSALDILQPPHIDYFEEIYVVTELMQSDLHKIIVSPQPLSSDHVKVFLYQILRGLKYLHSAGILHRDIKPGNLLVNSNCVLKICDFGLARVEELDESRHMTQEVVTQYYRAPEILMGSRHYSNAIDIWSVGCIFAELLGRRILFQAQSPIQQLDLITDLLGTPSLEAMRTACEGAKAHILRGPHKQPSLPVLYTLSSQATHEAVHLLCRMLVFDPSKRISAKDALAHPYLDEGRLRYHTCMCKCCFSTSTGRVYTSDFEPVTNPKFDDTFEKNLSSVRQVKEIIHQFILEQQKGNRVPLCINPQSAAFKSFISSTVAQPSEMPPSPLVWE
Serine/threonine-protein kinase 26 (Homo sapiens), sequence (Q9P289 2-416 limits assumed): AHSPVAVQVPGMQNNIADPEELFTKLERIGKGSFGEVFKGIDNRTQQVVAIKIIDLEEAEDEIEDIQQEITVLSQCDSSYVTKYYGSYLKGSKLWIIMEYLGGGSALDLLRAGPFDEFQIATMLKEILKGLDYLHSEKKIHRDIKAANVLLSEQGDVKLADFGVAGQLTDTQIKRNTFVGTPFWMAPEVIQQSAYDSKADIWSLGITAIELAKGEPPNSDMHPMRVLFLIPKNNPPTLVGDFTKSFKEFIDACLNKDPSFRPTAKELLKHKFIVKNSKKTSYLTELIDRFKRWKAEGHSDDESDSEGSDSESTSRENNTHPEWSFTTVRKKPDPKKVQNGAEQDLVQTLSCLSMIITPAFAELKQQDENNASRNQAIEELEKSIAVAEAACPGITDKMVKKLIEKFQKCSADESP
Ephrin type-A receptor 2 (Homo sapiens), sequence (P29317 whole entry, the tested form may be a part): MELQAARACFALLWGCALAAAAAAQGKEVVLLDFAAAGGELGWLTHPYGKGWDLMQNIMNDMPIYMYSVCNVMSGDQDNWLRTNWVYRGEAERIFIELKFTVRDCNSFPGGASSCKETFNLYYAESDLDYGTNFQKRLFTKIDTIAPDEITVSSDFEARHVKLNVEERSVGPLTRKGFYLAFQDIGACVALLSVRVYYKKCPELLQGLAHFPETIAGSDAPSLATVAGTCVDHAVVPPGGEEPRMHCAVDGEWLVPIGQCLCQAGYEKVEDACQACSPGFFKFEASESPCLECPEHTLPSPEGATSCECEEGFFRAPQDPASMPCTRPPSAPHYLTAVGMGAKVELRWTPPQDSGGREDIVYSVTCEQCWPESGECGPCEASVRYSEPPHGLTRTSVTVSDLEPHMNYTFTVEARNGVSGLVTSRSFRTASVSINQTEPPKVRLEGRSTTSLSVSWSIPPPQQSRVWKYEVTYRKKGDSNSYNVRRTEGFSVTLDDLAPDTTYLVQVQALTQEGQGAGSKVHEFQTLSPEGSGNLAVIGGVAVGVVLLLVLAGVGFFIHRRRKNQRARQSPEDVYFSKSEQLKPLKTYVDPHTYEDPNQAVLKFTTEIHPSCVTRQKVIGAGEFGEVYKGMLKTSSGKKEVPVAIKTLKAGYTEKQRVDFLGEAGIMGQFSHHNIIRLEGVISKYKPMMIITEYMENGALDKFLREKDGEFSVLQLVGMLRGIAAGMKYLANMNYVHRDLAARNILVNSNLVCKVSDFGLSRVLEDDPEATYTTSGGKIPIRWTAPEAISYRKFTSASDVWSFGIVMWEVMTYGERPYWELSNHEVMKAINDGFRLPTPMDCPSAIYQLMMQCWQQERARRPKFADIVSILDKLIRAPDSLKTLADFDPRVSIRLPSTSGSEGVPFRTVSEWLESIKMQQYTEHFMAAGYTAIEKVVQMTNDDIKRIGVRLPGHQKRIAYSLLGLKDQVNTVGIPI
Tyrosine-protein kinase Lyn (Homo sapiens), sequence (P07948 2-512 limits assumed): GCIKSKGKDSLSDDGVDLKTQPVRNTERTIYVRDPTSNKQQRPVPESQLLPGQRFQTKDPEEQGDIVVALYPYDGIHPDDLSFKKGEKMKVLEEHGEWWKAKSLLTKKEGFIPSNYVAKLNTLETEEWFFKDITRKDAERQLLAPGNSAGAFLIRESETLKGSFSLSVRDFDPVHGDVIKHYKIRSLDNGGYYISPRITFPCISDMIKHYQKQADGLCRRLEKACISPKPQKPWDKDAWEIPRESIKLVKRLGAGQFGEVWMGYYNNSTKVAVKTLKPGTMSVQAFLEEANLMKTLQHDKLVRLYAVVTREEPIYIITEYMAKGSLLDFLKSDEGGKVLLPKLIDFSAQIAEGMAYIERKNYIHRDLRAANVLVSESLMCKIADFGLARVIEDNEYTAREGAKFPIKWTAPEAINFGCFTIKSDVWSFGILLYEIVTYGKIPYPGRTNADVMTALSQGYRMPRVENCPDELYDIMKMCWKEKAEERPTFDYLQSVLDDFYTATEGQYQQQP
Serine/threonine-protein kinase MAK (Homo sapiens), sequence (P20794 whole entry, the tested form may be a part): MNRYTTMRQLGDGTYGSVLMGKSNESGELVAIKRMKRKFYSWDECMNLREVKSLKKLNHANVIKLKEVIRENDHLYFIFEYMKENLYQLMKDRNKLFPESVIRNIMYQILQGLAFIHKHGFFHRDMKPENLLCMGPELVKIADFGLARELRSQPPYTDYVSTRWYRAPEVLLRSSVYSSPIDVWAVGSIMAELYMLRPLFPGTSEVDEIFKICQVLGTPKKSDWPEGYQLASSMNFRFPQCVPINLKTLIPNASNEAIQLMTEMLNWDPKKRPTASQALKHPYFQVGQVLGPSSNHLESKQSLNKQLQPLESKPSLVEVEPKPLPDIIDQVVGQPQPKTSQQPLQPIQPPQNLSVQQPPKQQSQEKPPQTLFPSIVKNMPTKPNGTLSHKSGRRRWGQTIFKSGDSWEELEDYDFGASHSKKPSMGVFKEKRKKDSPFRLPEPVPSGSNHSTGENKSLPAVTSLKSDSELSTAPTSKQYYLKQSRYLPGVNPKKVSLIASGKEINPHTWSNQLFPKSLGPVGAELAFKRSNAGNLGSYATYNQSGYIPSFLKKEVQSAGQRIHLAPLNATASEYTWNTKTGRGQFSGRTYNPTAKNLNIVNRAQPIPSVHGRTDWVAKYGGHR
Serine/threonine-protein kinase PLK1 (Homo sapiens), sequence (P53350 whole entry): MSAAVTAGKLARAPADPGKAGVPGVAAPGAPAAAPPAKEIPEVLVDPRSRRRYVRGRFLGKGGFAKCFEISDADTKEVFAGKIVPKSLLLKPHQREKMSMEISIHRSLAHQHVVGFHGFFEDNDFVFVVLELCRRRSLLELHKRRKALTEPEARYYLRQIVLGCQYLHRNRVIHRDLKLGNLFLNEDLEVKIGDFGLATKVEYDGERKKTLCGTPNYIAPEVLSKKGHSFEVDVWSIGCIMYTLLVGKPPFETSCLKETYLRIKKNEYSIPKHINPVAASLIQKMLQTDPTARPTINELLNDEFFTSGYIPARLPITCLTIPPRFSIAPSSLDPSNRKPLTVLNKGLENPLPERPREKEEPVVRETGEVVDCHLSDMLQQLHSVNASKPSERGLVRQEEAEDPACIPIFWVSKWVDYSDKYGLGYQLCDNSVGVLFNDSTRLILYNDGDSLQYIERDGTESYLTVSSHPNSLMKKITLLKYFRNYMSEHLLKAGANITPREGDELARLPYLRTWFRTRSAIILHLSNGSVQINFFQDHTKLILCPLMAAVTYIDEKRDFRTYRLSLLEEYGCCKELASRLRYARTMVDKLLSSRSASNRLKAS
Serine/threonine-protein kinase tousled-like 2 (Homo sapiens), sequence (Q86UE8 whole entry, looked up, the tested form may be a part): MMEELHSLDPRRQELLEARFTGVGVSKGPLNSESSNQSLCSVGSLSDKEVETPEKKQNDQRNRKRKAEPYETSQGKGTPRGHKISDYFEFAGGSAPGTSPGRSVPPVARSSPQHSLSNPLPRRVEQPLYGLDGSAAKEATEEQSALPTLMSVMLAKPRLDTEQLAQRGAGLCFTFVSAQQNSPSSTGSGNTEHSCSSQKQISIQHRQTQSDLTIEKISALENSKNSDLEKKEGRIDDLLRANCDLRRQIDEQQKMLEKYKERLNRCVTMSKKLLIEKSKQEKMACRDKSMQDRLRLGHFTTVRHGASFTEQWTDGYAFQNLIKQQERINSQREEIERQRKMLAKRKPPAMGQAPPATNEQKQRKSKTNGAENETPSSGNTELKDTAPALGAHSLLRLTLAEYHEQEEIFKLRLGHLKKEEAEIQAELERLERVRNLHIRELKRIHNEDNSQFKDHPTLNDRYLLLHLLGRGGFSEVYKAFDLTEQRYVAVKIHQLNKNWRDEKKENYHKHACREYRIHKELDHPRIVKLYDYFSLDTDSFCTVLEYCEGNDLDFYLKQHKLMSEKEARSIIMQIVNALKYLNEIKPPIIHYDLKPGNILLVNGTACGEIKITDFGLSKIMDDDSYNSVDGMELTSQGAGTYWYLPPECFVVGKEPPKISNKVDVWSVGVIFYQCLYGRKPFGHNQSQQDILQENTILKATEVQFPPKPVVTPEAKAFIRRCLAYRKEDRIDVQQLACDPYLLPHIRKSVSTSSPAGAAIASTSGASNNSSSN
Serine/threonine-protein kinase Nek3 (Homo sapiens), sequence (P51956 whole entry, the tested form may be a part): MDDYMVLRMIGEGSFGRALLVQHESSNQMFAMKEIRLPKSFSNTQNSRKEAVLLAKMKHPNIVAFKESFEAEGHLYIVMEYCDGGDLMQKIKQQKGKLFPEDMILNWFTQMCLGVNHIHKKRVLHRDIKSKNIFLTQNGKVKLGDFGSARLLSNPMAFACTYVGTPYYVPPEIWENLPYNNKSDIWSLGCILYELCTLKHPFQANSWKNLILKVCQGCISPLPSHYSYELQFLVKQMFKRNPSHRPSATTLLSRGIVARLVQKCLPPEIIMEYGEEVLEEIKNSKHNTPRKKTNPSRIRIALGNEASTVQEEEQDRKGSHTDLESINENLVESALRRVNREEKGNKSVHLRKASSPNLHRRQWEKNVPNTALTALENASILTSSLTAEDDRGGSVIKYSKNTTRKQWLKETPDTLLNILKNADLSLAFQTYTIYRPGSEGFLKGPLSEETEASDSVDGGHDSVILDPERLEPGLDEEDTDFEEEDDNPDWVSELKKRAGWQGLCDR

In the case of `N=C1NC(=O)/C(=C\c2ccc(-c3cccc([N+](=O)[O-])c3)o2)S1`, the Activity in test [1] is 80%; in test [2], 82%; in test [3], 83%; in test [4], 17%; in [5] it was 100%; in test [6], 59%. Also, the Activity in [7] was found to be 61%; in [8], 85%; in [9], 99%; in test [10] it was 51%; in test [11], 97%; in test [12], 89%. Further, the Activity in test [13] came out at 87%; in [14], 93%; in test [15], 94%; in [16] it was 99%; in [17], 81%; in [18] it was 103%. Moreover, the Activity in test [19] is 98%; in [20] it was 101%; in test [21], 102%.

On to `C=CCOC(=O)c1cc(-c2ccc(/C=C3/NC(=S)NC3=O)o2)ccc1Cl`, for which the Activity stood at 88% in test [1]; 95% in test [2]; 92% in [3]; 37% in [4]; 92% in test [5]; 64% in [6]. Also, the Activity in [7] stood at 90%; in [8] it was 78%; in [9], 92%; in test [10] it was 66%; in test [11] it was 90%; in test [12] it was 94%. Also, the Activity in test [13] was found to be 98%; in test [14], 106%; in [15], 93%; in [16] it was 103%; in test [17], 90%; in test [18] it was 98%. The Activity amounted to 114% in test [19], 101% in [20] and 103% in test [21].

(Values after ChEMBL document CHEMBL4334438, “Discovery of novel glycogen synthase kinase-3α inhibitors: Structure-based virtual screening, preliminary SAR and biological evaluation for treatment of acute myeloid leukemia” (Eur J Med Chem, 2019).)
